# Assay results reported in PMC12848038, “O-GlcNAc and phosphorylation modifications on HtL1/FBA10 regulate wheat vernalization for flowering” (Nature Communications, 2025).
# Target: T1, HtL1/FBA10 (HtL1-GST) (Triticum aestivum, UniProt A0A1D5VE13)
# T1 construct: gene LOC123071650; class I aldolase, homotetramer only predicted (SWISS-MODEL); cytosolic
# T1 sequence (A0A1D5VE13 1-358): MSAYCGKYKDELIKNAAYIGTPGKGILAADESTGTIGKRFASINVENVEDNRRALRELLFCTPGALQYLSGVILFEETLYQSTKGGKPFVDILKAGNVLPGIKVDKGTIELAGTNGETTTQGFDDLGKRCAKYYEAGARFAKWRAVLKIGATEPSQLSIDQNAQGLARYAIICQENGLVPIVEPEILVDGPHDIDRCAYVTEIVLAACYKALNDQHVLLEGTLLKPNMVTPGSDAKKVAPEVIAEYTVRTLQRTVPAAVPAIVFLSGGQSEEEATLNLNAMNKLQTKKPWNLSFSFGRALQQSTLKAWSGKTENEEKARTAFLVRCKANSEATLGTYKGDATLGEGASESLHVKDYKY
# Experiment: fructose-1,6-bisphosphate aldolase activity assay kit, microplate reader; enzyme kinetic curve
# Format: biochemical
# Conditions: GST fusion protein; no constant in text; kinetic curve only in figure
smiles,measurement,value
"O=P(O)(O)OC[C@H]1OC(O)(COP(=O)(O)O)[C@@H](O)[C@@H]1O (stereo partly shown) [FBP, fructose 1,6-bisphosphate]","fructose-1,6-bisphosphate aldolase activity assay kit, microplate reader; enzyme",Enzyme kinetic curves and activity assays collectively demonstrated that HtL1 exhibits fructose-bisphosphate aldolase activity
